Data from publication PMC11591284, “Development and Optimization of a Redox Enzyme-Based Fluorescence Biosensor for the Identification of MsrB1 Inhibitors” (Antioxidants, 2024).

Legend:
[1] = target: T1, MsrB1 (Mus musculus, UniProt Q9JLC3, U95C); test: NADPH consumption assay of MsrB1 activity; assay type: biochemical; settings: absorbance at 340 nm, 900 s vs 0 min; approximately 50 μM compound; DMSO control 0.638
T1 construct: made in house
T1 sequence (Q9JLC3 1-116 U95C): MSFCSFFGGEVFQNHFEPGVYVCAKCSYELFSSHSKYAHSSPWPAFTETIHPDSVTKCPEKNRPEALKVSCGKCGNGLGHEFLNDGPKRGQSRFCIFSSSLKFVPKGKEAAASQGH
Procedure: The activity of MsrB1 was assessed over a 900-s period in a 20 mM 4-(2-hydroxyethyl)-1-piperazineethanesulfonic acid (HEPES) buffer at pH 7.5 and 37 °C. The reaction mixture contained 500 μM N-AcMetO, 6 μM MsrB1, 2 μM mouse thioredoxin, 1 μM mouse thioredoxin reductase, 50 μM NADPH, and approximately 50 μM of a chemical compound. All components, except for the chemical compound, substrate (N-AcMetO), and NADPH, were pre-mixed. The chemical compound was added and incubated for 10 min. NADPH (50 μM) and 500 μM N-AcMetO were added before absorbance measurements began. The rate of NADPH oxidation was monitored by measuring absorbance at 340 nm every 30 s until the reaction was complete.

[2] = test system: bone marrow-derived macrophages (BMDMs); test: Cytokine mRNA expression in LPS-stimulated bone marrow-derived macrophages; assay type: cell-based, mouse; settings: WT BMDMs, 1 μM inhibitor, LPS stimulation 24 h
Procedure: Bone marrow-derived macrophages (BMDMs) were generated by culturing bone marrow cells isolated from 8-week-old male C57BL/6 mice and MsrB1 knockout (KO) mice. The cells were cultured in high-glucose Dulbecco’s Modified Eagle Medium (DMEM) (Cytiva, Marlborough, MA, USA) supplemented with 10% fetal bovine serum (FBS), 100 U·mL^−1 penicillin-streptomycin (Gibco, Waltham, MA, USA), 20 mM HEPES (Gibco, Waltham, MA, USA), and 50 ng·mL^−1 recombinant mouse macrophage colony-stimulating factor (M-CSF) (BioLegend, San Diego, CA, USA). On day 3, 10 mL of fresh medium containing 50 ng·mL^−1 M-CSF was added to the cultures. On day 5, cells were treated with 1 μM MsrB1 inhibitors. On day 6, cells were treated with LPS (BioLegend, San Diego, CA, USA) for 24 h. Following treatment, cells were harvested, and total RNA was extracted using the High-Capacity cDNA Reverse Transcription Kit (Applied Biosystems, Foster City, CA, USA). Gene expression of IL-10 and IL-1rn mRNA was analyzed using the QuantStudio 3 Real-Time PCR system.

[3] = target: T1, MsrB1; test: MsrB1 activity assay by HPLC with dabsylated MetO as substrate; assay type: biochemical; settings: dabsyl-MetO to dabsyl-Met
Procedure: Methionine sulfoxide reductase B1 activity was determined using dabsylated MetO as substrate. […] The reaction was conducted for 30 min at 37 °C in a water bath and stopped by adding 200 μL of acetonitrile and vortexing. The reaction product, dabsyl-Met, was analyzed by HPLC using a ZORBAX RX-C18 column (5 μm; 4.6 × 150 mm). The column was pre-equilibrated with 0.14 M sodium acetate (pH 6.1), 0.5 mL/L triethylamine, and 30% acetonitrile. A total of 50 μL of the sample was loaded onto the column. The flow rate was 1 mL·min^−1, and a linear gradient elution mode was used (30% to 70%). Dabsyl-Met was detected via absorbance at 436 nm.

[4] = test system: C57BL/6 mice; test: TPA-induced acute skin inflammation (ear edema) model; assay type: in vivo, mouse; settings: WT mice, 0.5 μM inhibitor in drinking water for 21 days, topical TPA
Procedure: Six-week-old male wild-type (WT) C57BL/6 mice and MsrB1 knockout (KO) mice were used in this experiment. The mice were provided with 50 mL water containing either 0.5 μM MsrB1 inhibitors dissolved in 1% DMSO or 1% DMSO alone (control) for 21 days. After this period, 50 μg·mL^−1 of TPA was applied to the right ear of each mouse, while the left ear received acetone as a control. Twenty hours after the initial TPA application, a second dose was administered. The mice were then sacrificed, and ear tissue samples were collected. The tissues were fixed in 10% formalin, dehydrated, embedded in paraffin, and sectioned into slices 3–5 μm thick. The sections were deparaffinized, rehydrated, and stained with hematoxylin and eosin (H&E) for histological examination under microscopy.

[5] = target: T2, Recombinant mouse MsrB1 protein (Mus musculus, UniProt Q9JLC3, U95C); test: Microscale thermophoresis (MST) binding assay; settings: read-out: KD ± SD
T2 construct: made in house; host or cells: E. coli (inferred; Rosetta2 (DE3) pLysS and pET-28a are described only for the RIYsense fusion)
T2 sequence (Q9JLC3 1-116 U95C): T1 sequence (Q9JLC3 1-116 U95C)
Procedure: MST analysis was performed using the Monolith NT.115 system (NanoTemper Technologies, München, Germany). Recombinant mouse MsrB1 protein was labeled with the Monolith His-Tag Labeling Kit RED-tris-NTA 2nd Generation (NanoTemper Technologies, Germany). The protein was prepared at a concentration of 200 nM, and the RED-tris-NTA 2nd Generation dye was diluted to 100 nM in the PBS-T (Tween 20) buffer. A mixture of 100 μL of 200 nM protein and 100 μL of 100 nM dye was incubated at RT for 30 min. After incubation, the sample was centrifuged at 13,000 rpm at 4 °C for 10 min, and the supernatant was transferred to a new tube, completing the protein labeling process and preparing the sample for analysis. Inhibitor compounds were serially diluted in DMSO, starting at a concentration of 1.25 mM (1:1 dilution, 16 points), and then each of the 16 dilutions was further diluted fivefold with PBS-T buffer. Next, 10 μL of the diluted compounds were mixed with 10 μL of the labeled protein, followed by resuspension and incubation for 10 min at RT. The samples were loaded into capillaries in serial order and analyzed using the Monolith NT.115 system at 60% LED power and 60% MST power. Changes in normalized fluorescence, dependent on the concentration of the compounds after 30 s of MST on time, were analyzed to determine Kd values.

Row | NADPH (Abs15min/Abs0min) [1] | Relative enzyme activity of MsrB1 ([3]; 10 µM compound) | Kd [5] | SMILES | IL-1rn mRNA expression [2] | IL-10 mRNA expression [2] | Relative enzyme activity of MsrB1 ([3]; 100 µM and 500 µM compound) | Dermal area of TPA-treated auricle (H&E) compared to wild-type control mice [4]
1 | 0.918 | no inhibition was observed | 0.0971 ± 0.0016 µM | CCc1ccc(-n2c3nc(=O)[nH]c(=O)c-3cc3c(Cl)cccc32)cc1 [B03, 6-chloro-10-(4-ethylphenyl)pyrimido[4,5-b]quinoline-2,4-dione] | reduced | significantly reduced | decreased in a concentration-dependent manner | substantially more enlarged
2 | 0.942 | no inhibition was observed | 0.0283 ± 0.00121 µM | CCc1ccc(C2=NN(c3ccc(S(N)(=O)=O)cc3)C(c3ccc(O)cc3)C2)cc1 (centres unmarked) [A06, 4-[5-(4-ethylphenyl)-3-(4-hydroxyphenyl)-3,4-dihydropyrazol-2-yl]benzenesulfonamide] | reduced | significantly reduced | decreased in a concentration-dependent manner | substantially more enlarged
